Data as given in article PMC5974469, “A New Family of Capsule Polymerases Generates Teichoic Acid-Like Capsule Polymers in Gram-Negative Pathogens” (mBio, 2018).

Biological target: T1, Cps3D (Actinobacillus pleuropneumoniae, UniProt A0A2S0ETM3)
T1 construct: MBP-Cps3D-His6 (177 kDa), full-length, tags kept, expressed in E. coli M15[pREP4]
Test: HPLC-AEC of donor consumption, PAGE and NMR of polymer
Assay type: biochemical
Details: 20 mM Tris pH 8.0, 10 mM MgCl2, 1 mM DTT, 37 °C; no primer; with UDP-Gal

T1 sequence (A0A2S0ETM3 entry or part of it): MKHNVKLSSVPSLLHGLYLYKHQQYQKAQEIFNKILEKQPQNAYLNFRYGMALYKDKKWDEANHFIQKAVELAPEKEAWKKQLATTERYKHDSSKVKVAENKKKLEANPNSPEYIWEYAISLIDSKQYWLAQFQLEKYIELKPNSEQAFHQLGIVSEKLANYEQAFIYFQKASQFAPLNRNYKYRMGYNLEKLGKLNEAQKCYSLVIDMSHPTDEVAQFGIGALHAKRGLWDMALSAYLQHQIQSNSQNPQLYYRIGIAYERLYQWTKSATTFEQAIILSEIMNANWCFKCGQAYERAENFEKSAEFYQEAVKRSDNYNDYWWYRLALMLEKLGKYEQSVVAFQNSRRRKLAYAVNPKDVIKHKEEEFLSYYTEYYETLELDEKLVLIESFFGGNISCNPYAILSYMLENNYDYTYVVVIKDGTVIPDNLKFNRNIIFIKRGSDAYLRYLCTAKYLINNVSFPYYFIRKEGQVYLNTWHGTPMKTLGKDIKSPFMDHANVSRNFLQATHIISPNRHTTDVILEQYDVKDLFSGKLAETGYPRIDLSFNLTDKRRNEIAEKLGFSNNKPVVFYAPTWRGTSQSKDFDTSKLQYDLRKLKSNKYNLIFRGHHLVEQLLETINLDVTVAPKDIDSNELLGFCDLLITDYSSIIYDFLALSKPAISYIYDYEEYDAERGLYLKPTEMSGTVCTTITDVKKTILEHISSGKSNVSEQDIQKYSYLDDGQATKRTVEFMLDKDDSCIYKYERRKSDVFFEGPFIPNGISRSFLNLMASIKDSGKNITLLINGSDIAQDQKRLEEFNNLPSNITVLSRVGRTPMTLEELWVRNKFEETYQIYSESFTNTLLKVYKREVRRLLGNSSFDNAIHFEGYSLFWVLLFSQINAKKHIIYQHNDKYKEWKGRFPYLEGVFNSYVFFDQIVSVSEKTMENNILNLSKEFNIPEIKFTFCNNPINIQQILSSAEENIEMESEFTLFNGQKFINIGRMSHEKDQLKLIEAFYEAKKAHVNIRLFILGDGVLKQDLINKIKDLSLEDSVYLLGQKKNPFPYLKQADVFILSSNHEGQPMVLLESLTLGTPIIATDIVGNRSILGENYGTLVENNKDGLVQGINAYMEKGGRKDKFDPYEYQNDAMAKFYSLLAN

With `Nc1ccn([C@@H]2O[C@H](COP(=O)(O)OP(=O)(O)OC[C@H](O)CO)[C@@H](O)[C@H]2O)c(=O)n1` (racemic) [CDP-glycerol] the “HPLC-AEC of donor consumption, PAGE and NMR of polymer” value was “both enantiomers are substrates for the enzymes as shown by the complete consumption of CDP-glycerol”.
